The source of these data is patent US20190015423A1, “REGULATION OF GENE EXPRESSION BY MODULATING PRIMARY CILIA LENGTH” (THE TRUSTEES OF COLUMBIA UNIVERSITY IN THE CITY OF NEW YORK, priority 2016, published 2019).

Entries after “also recorded” stand apart in the source; their conditions may differ. Counter-ions that a name gives are not always drawn. Where a SMILES comes first, the peptide text is derived from it.

The first test relates to MLO-Y4 osteocytes. Nature of the test: High-throughput drug screening of primary cilia length and incidence.
Settings: not given
Type of test: cell-based. How it is done: MLO-Y4 osteocytes were maintained on collagen I-coated dishes in MEMα (Life_Technologies) supplemented with 5% fetal bovine serum (FBS), 5% calf serum (CS), and 1% penicillin/streptomycin (P/S) at 37° C. and 5% CO2. Osteocytes were then seeded onto 384-well collagen-coated plates for 72 hours before fixation. […] These libraries include Tocris, Sigma LOPAC, Selleck Chemical, Prestwick, and Spectrum commercially available compound libraries. All cell seeding and plate handling was performed with the Perkin Elmer cell:explorer workstation.
Cells were fixed in 4% paraformaldehyde and permeabilized with 0.1% Triton-X 100 (Sigma). 10% goat serum (vendor) was used for blocking. Cilia were stained using a monoclonal antibody against acetylated α-tubulin (1:20) from a C3B9 hybridoma cell line, and visualized with A F488 (1:1000, ThermoFisher). Nuclei were visualized with Hoechst. Cells were imaged using a GE INCell 2000 high-throughput imager at 40× magnification. 4 fields of view were taken per well.
Each pair of nuclei and cilia images was first analyzed individually, then the entire population was examined to evaluate each compound's effect on cilia length and incidence. A custom MATLAB script was developed to perform all image analysis. This script first utilizes an enhanced implementation of a watershed transform, which is a segmentation tool which enables detection of similarly shaped overlapping particles in noisy images by the procedural whittling down of pixels found close to the edge of such particles. The augmentation of the algorithm incorporates thresholding for noise removal based on signal intensity and object size, nuclei dilation to exclude non-cellular artifacts, as well as skeletonization of cilia to quantify length. The results of the analysis are number of nuclei, number of cilia, and average cilia length in each image.
Compounds were selected based on deviation from the population mean. Each well was normalized to vehicle control images on each plate, allowing the establishment of a normalized population mean. Hits were chosen based on compounds whose triplicate mean was furthest (based on standard deviation away) from the population mean. […] Compounds were classified based on mechanism of action.
To identify compounds that modulate primary cilia formation a high-throughput platform was developed to automate cell culture, staining, imaging, and analysis, as shown in schematic form in FIG. 18. […] Cells were cultured on 384-well plates, and treated with small molecules with known biologic activity, enabling classification of mechanisms of action. Drug treatment was applied for 16 hours at 10 μM concentration, performed in triplicate, before fixation and immunostaining of primary cilia. Cells were then imaged using the GE INCell 2000 High Content Analyzer, capturing 4 fields of view per well at 40× magnification. Additionally, each plate contains 8 wells of DMSO vehicle control.
A MATLAB script was developed to detect and analyze changes in ciliogenesis. […] A representative exemplary image (FIG. 19A) is cropped to better display features, scale bar represents 30 μm. A custom MATLAB script was used to identify nuclei and cilia for analysis (FIG. 19B). […] Objects are further filtered based on size and signal intensity.
Cilia length and incidence for each field of view were normalized to vehicle control on that individual plate. This allowed development of a normalized population average and standard deviation. […] To control for toxic effects only small molecules with at least 40% viability, based on number of nuclei versus control, were selected as hits. Furthermore, compounds repeated between multiple libraries eliciting the same effect on cilia length or incidence were excluded, such that only one of the repeated compounds was selected as a hit.
For `CC(C)(C)CC(C)(C)c1ccc(OCCOCC[N+](C)(C)Cc2ccccc2)cc1` [Benzethonium chloride], the “Average Length SD Away” value was 5.179 SD. As to (S)-(+)-Niguldipine hydrochloride, the “Average Length SD Away” value was found to be 2.267 SD.

Still in this test, the particulars now being: 10 μM, 16 hours, triplicate; normalized to vehicle control; standard deviation away from the population average.
Turning to `CN(Cc1cc(Br)cc(Br)c1N)C1CCCCC1` [Bromhexine HCl], the “Average Incidence SD Away” value stood at 1.882 SD and the “Average Length SD Away” value stood at 1.547 SD.

Turning to `O=C1NC(=O)C(c2ccccc2[N+](=O)[O-])=C1Nc1ccc(O)c(Cl)c1` [SB 415286], the “Average Length SD Away” value is given as 2.05 SD. In the case of `C[S+]([O-])c1ccc(-c2nc(-c3ccc(F)cc3)c(-c3ccncc3)[nH]2)cc1` (stereo not drawn) [SB 203580], the “Average Length SD Away” value stood at 1.797 SD.

For the compound `O=c1[nH]cc(F)c(=O)[nH]1` [5-fluorouracil], the “Average Length SD Away” value is on record as 1.775 SD. With `C[C@H](CCC(=O)O)[C@H]1CC[C@H]2[C@@H]3C(=O)C[C@@H]4CC(=O)CC[C@]4(C)[C@H]3CC(=O)[C@]12C` [DEHYDROCHOLIC ACID], the “Average Length SD Away” value was 1.611 SD. `CC(C)(C)[N+]([O-])=Cc1ccc(S(=O)(=O)[O-])cc1S(=O)(=O)[O-].[Na+].[Na+]` [NXY 059]: the “Average Incidence SD Away” value came to 1.838 SD. On the same count and under the same terms, as for `CCCC(=O)OCOC(=O)C1=C(C)NC(C)=C(C(=O)OC)C1c1cccc(Cl)c1Cl` (stereo not drawn) [Cleviprex (Clevidipine), Clevidipine], the figure is 1.837 SD. Consider `N=C1C=CC(=C(c2ccc(N)cc2)c2ccc(N)cc2)C=C1` [PARAROSANILINE PAMOATE], for which the “Average Length SD Away” value was 2.389 SD.

On to `Cc1cc(NC(=O)Nc2ccc(N(C)C)cc2)c2cc(F)cc(F)c2n1` [SB 408124], for which the “Average Length SD Away” value came to 2.398 SD. As for `CCCc1cc(=O)[nH]c(=S)[nH]1` [Propylthiouracil], the “Average Incidence SD Away” value was 1.659 SD. In the case of `CC1=NCCc2c1[nH]c1cc(O)ccc21.Cl` [HARMALOL HYDROCHLORIDE], the “Average Length SD Away” value is on record as 1.629 SD. Still for that read-out and setting: the same measure for Ro 19-4605: 1.584 SD. Take `O=C1C=C2C=C[C@@H]3C[C@@]2(O1)[C@H]1CCCCN31` [SECURININE]: the “Average Length SD Away” value was determined as 1.502 SD. Turning to `CC(C)NCC(O)c1ccc(O)c(O)c1` (stereo not drawn) [Isoprenaline hydrochloride], the “Average Incidence SD Away” value was 1.623 SD. Turning to `CC1C(=O)OC2C(O)C34C5CC(C(C)(C)C)C36C(OC(=O)C6O)OC4(C(=O)O5)C12O` (stereo not drawn) [Ginkgolide B], the “Average Length SD Away” value was found to be 1.581 SD.

On to `C=C[C@H]1C[N@@]2CC[C@H]1C[C@@H]2[C@@H](O)c1ccnc2ccc(OC)cc12` [QUINIDINE GLUCONATE], for which the “Average Length SD Away” value is listed as 1.825 SD. With `CCOC(=O)[C@H](CCc1ccccc1)N[C@H]1CS[C@H](c2cccs2)CN(CC(=O)O)C1=O` [Temocapril HCl], the “Average Incidence SD Away” value was 1.877 SD.

`Nc1nc(N)c2nc(-c3ccccc3)c(N)nc2n1` [Triamterene]: the “Average Length SD Away” value amounted to 2.775 SD.

Turning to `Cc1cc2c(s1)Nc1ccccc1N=C2N1CCN(C)CC1` [Olanzapine (Zyprexa), Olanzapine], the “Average Incidence SD Away” value came to 1.609 SD. `CCc1ccc(CCOc2ccc(CC3SC(=O)NC3=O)cc2)nc1` (stereo not drawn) [Pioglitazone hydrochloride (Actos), Pioglitazone hydrochloride]: the “Average Incidence SD Away” value came to 2.52 SD. Same read-out and setting: the same measure for `CC(C)NCC(O)COc1ccc(CCOCC2CC2)cc1` (stereo not drawn) [Betaxolol hydrochloride (Betoptic), Betaxolol hydrochloride]: 1.631 SD.

For `Cn1ccc2cc3c(cc21)CCN3C(=O)Nc1cccnc1` [SB 206553 hydrochloride], the “Average Length SD Away” value came to 1.704 SD. On the same count and under the same terms, as for `CCN(CC)CCNc1ccc(CO)c2sc3ccccc3c(=O)c12` [HYCANTHONE], the figure is 2.896 SD. On to `CN1[C@@H]2CC[C@H]1C[C@@H](OC(=O)c1c[nH]c3ccccc13)C2` [Tropisetron], for which the “Average Incidence SD Away” value is 1.694 SD. For S(−)-Atenolol, the “Average Incidence SD Away” value is given as 2.177 SD and the “Average Length SD Away” value is 2.057 SD.

Regarding `COC(=O)[C@H](Cc1ccccc1)NC(=O)[C@@H](N)CC(=O)O` [Aspartame] (H-Asp-Phe-OMe), the “Average Incidence SD Away” value is reported as 1.732 SD. For `C[C@]12CC[C@@H]3c4ccc(O)cc4CC[C@H]3[C@@H]1CC[C@@H]2OC(=O)CCC1CCCC1` [ESTRADIOL CYPIONATE], the “Average Length SD Away” value was 1.56 SD.

Turning to `C[N+]1(C)[C@@H]2C[C@@H](OC(=O)C(O)(c3cccs3)c3cccs3)C[C@H]1[C@@H]1O[C@@H]12` [Tiotropium Bromide hydrate], the “Average Incidence SD Away” value worked out at 1.593 SD. On the same count and under the same terms, as for `CN1CCN2c3ncccc3Cc3ccccc3C2C1` (stereo not drawn) [Mirtazapine (Remeron Avanza), Mirtazapine], the figure is 1.681 SD; as for `CN/C(=N/CCSCc1nc[nH]c1C)NC#N` [Cimetidine (Tagamet), Cimetidine], 1.562 SD. Still for that read-out and setting: as for `Cn1c(=O)c2[nH]cnc2n(C)c1=O.Cn1c(=O)c2[nH]cnc2n(C)c1=O.NCCN` [Aminophylline ethylenediamine], the figure is 2.59 SD; as for `NC(=O)c1ncn([C@@H]2O[C@H](CO)[C@@H](O)[C@H]2O)c1N` [Acadesine], 1.847 SD.

Turning to `O=c1[nH]c(=O)n([C@H]2C[C@H](O)[C@@H](CO)O2)cc1I` [Idoxuridin], the “Average Incidence SD Away” value amounted to 1.798 SD.

Take `CCc1nc(N)nc(N)c1-c1ccc(Cl)cc1` [PYRIMETHAMINE]: the “Average Incidence SD Away” value was determined as 1.762 SD and the “Average Length SD Away” value worked out at 3.194 SD.

Take `O=NN(CCCl)C(=O)NC1CCCCC1` [Lomustine (CeeNU), Lomustine]: the “Average Incidence SD Away” value is 2.228 SD. Turning to `Nc1nccc(-c2ccc3noc(-c4ccc(Cl)cc4)c3c2)n1` [PIM 1 Inhibitor 2], the “Average Length SD Away” value came to 3.223 SD. Same read-out and setting: as for MONENSIN SODIUM, the figure is 1.722 SD. Consider `CNCCc1ccccn1` [BETAHISTINE HYDROCHLORIDE], for which the “Average Length SD Away” value came to 1.532 SD.

Regarding `Nc1nc2nc[nH]c2c(=S)[nH]1` [THIOGUANINE], the “Average Length SD Away” value is recorded as 1.675 SD.

As for `COC(=O)[C@H]1[C@H]2C[C@@H]3c4[nH]c5cc(OC)ccc5c4CCN3C[C@H]2C[C@@H](OC(=O)c2cc(OC)c(OC)c(OC)c2)[C@@H]1OC` [RESERPINE], the “Average Length SD Away” value came out at 1.972 SD. Take `CC(=O)O[C@]1(C(C)=O)CC[C@H]2[C@@H]3C[C@H](C)C4=CC(=O)CC[C@]4(C)[C@H]3CC[C@@]21C` [Medroxyprogesterone acetate]: the “Average Incidence SD Away” value came to 2.659 SD. Take `CCCCOc1ccc(CC(=O)NO)cc1` [Bufexamac]: the “Average Incidence SD Away” value worked out at 2.326 SD and the “Average Length SD Away” value amounted to 3.676 SD. For `CNC(=O)c1cc(Oc2ccc(NC(=O)Nc3ccc(Cl)c(C(F)(F)F)c3)cc2)ccn1` [Sorafenib (Nexavar), Sorafenib] the same measures were 1.678 SD and 1.5 SD. As to `Cc1cccc(C)c1NC(=O)CN1CCCC1=O` [Nefiracetam (Translon), Nefiracetam], the “Average Incidence SD Away” value stood at 1.552 SD.

Take `COc1cc2c(cc1OC)[C@@H]1C(=O)c3ccc4c(c3O[C@@H]1CO2)C=CC(C)(C)O4` [DEGUELIN(−)]: the “Average Length SD Away” value amounted to 2.48 SD.

Take `COc1ccc(-c2cc3nccn3c(Nc3ncccc3C(N)=O)n2)cc1OC.Cl.O` [BAY 61-3606 hydrochloride hydrate]: the “Average Length SD Away” value amounted to 1.54 SD.

Consider `c1ccc(-c2[nH]ncc2-c2ccnc3ccccc23)nc1` [LY 364947], for which the “Average Incidence SD Away” value was 1.591 SD.

With `CON` [METHOXYAMINE HYDROCHLORIDE], the “Average Length SD Away” value is listed as 1.91 SD. As to `O=C(NCCO[N+](=O)[O-])c1cccnc1` [Nicorandil (Ikorel), Nicorandil], the “Average Incidence SD Away” value is given as 1.556 SD.

Staying with this test, now noted: 10 μM, 16 hours; hit = 1.5 standard deviation above population average, at least 40% viability.
Turning to `CCCCOc1ccc(CC(=O)NO)cc1` [Bufexamac], the “classification as hit increasing cilia length in the screen” value is “listed as a hit increasing length; also recorded: listed as hits”.
